Values joined by “and” are separate entries in the source; they are usually repeats but may differ in a detail not shown here. Equal values may be shown once.
What was measured:
TGFBR1(h) = TGFBR1(h) (Homo sapiens, UniProt P36897); assay: Kinase Profiler; assay type: biochemical
Procedure: (§3) Blood cell counts, kinase profiler, safety screen, bacterial cytotoxicity, Ames, micronucleus assays were performed by the company Eurofins (France). The kinase profiler was performed by the company Eurofins (Discovery, Panlab and Cerep).

NUAK2(h) = NUAK2(h) (Homo sapiens, UniProt Q9H093); assay: Kinase Profiler; assay type: biochemical
Procedure: (§4) The kinase profiler was performed by the company Eurofins (Discovery, Panlab and Cerep).

WNK1(h) = WNK1(h) (Homo sapiens, UniProt Q9H4A3); assay: Kinase Profiler; assay type: biochemical
Procedure: as §4

TA1537 = assay: Bacterial cytotoxicity; assay type: cell-based
Source text: Data S2. Bacterial cytotoxicity of A41.
Test Concentration %Effect Cytotoxicity (% of control) […]
Bacterial cytotoxicity (TA1537 - S9)

CK1α(h) = CK1α(h) (Homo sapiens, UniProt P48729); assay: Kinase Profiler; assay type: biochemical
CK1α(h), sequence (P48729 whole entry): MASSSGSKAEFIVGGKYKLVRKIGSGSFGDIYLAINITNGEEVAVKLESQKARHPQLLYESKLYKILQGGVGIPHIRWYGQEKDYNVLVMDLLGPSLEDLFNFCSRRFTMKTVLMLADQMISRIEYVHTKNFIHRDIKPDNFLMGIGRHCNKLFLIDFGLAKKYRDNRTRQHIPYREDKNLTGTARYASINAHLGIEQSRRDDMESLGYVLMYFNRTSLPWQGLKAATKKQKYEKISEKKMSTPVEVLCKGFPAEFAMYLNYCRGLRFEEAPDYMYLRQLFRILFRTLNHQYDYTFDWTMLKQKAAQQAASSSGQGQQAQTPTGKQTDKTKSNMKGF
Procedure: as §3

LIMK2(h) = LIMK2(h) (Homo sapiens, UniProt P53671); assay: Kinase Profiler; assay type: biochemical
Procedure: as §4

PhKγ1(h) = PhKγ1(h) (Homo sapiens, UniProt Q16816); assay: Kinase Profiler; assay type: biochemical
Procedure: as §3

VRK2(h) = VRK2(h) (Homo sapiens, UniProt Q86Y07); assay: Kinase Profiler; assay type: biochemical
Procedure: as §4

[1] = system: Calcium Channel L-Type, Benzothiazepine; assay: Safety screen; assay type: binding, rat
PKCη(h) = PKCη(h) (Homo sapiens, UniProt P24723); assay: Kinase Profiler; assay type: biochemical
PKCη(h), sequence (P24723 whole entry): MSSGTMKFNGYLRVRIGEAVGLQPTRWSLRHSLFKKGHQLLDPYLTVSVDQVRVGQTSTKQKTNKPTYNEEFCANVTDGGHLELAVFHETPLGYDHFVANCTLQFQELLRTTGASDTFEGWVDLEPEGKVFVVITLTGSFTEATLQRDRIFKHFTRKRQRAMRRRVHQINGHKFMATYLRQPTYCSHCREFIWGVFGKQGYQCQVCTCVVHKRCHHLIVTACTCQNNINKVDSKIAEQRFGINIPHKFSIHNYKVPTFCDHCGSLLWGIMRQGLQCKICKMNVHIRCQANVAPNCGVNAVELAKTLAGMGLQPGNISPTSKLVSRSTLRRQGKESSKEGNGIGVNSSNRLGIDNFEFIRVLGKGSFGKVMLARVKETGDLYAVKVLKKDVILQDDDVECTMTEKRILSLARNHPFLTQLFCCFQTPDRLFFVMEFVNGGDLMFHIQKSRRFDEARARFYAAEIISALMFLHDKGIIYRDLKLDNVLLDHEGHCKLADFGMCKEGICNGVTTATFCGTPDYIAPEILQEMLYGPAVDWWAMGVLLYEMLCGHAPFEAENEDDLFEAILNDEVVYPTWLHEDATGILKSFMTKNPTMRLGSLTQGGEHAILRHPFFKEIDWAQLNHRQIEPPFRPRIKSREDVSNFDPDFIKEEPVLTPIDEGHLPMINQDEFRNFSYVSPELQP
Procedure: as §4

WNK3(h) = WNK3(h) (Homo sapiens, UniProt Q9BYP7); assay: Kinase Profiler; assay type: biochemical
Procedure: as §4

NEK9(h) = NEK9(h) (Homo sapiens, UniProt Q8TD19); assay: Kinase Profiler; assay type: biochemical
NEK9(h), sequence (Q8TD19 whole entry): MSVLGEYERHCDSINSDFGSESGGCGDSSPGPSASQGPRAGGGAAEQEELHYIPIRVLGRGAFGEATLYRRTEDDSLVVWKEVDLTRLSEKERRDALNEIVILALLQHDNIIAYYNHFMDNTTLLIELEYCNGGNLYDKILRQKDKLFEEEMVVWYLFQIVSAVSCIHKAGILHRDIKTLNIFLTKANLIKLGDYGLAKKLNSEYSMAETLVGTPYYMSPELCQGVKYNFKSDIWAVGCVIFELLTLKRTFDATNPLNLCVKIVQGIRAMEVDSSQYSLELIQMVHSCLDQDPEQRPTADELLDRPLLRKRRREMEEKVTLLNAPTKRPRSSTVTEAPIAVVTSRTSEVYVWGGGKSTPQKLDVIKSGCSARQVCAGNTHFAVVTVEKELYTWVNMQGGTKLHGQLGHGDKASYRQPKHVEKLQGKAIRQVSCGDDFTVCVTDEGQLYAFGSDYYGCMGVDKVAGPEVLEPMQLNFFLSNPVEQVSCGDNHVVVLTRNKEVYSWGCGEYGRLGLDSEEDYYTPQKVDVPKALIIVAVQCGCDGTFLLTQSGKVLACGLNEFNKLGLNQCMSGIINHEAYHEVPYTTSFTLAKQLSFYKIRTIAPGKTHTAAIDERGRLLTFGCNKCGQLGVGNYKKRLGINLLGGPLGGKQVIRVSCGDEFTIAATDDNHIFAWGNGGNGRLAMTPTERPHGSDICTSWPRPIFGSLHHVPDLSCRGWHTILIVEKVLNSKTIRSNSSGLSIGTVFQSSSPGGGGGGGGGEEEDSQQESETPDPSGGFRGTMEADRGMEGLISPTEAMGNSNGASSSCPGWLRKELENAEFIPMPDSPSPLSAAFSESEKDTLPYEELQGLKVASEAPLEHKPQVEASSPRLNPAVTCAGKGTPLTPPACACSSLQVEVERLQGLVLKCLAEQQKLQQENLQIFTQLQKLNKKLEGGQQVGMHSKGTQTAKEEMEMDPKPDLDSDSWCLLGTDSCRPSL
Procedure: as §4

CT26 cells = assay: Colorectal circulating tumor cells model (pulmonary metastasis); assay type: in vivo, mouse; conditions: 25 mg/kg i.p. daily day 0 to 14
Procedure: 7-8 weeks-old BALB/c female mice received an intravenous injection through the caudal vein of the cell suspension (CT26 cells, ATCC® CCL-2638™). The volume needed for implantation was loaded in insulin syringes (2x10^5 cells) in 100 μL of phosphate-buffered saline). The anesthetized mice were placed on a warming blanket and were monitored (breathing) until they wake up.

CLK3(h) = CLK3(h) (Homo sapiens, UniProt P49761); assay: Kinase Profiler; assay type: biochemical
Procedure: as §4

LATS2(h) = LATS2(h) (Homo sapiens, UniProt Q9NRM7); assay: Kinase Profiler; assay type: biochemical
LATS2(h), sequence (Q9NRM7 whole entry): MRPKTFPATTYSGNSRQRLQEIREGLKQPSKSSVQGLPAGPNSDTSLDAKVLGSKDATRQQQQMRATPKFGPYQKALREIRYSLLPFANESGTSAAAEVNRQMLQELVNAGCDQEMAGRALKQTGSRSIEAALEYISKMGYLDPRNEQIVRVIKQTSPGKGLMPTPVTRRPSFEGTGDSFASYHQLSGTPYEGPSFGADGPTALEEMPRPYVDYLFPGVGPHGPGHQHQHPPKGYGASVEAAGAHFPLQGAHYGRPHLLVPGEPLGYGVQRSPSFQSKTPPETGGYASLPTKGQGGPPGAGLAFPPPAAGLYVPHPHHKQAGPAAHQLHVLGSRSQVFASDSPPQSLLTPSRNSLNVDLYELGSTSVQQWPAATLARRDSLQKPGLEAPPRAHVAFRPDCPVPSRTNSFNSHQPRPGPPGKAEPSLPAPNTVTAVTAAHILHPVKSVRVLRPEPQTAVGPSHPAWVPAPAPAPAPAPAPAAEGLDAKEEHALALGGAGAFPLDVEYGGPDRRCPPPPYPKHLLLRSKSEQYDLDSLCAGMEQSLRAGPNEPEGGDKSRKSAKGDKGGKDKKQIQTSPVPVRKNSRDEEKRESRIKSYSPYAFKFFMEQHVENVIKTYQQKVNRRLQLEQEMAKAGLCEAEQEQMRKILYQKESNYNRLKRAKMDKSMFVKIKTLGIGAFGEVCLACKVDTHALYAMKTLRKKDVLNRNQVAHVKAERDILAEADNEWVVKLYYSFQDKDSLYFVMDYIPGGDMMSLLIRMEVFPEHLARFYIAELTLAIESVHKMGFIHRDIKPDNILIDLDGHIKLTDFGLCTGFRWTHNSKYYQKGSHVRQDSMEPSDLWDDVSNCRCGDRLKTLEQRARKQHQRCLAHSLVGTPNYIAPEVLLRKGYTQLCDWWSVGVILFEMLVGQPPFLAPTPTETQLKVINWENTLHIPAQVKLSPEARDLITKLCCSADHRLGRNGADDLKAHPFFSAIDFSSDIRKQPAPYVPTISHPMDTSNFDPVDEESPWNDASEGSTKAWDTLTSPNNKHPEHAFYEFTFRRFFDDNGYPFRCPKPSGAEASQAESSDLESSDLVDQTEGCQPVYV
Procedure: as §4

[2] = target: Platelet Activating Factor (PAF) (Homo sapiens, UniProt P25105); assay: Safety screen; assay type: binding
Procedure: as §3

[3] = system: p44/42 phosphorylation in MDA-MB-468 Luc cells; assay: Immunoblotting; assay type: cell-based; conditions: 10^-5 M, 1 h
Procedure: (§1) Figure 5 A41 decreases growth and invasiveness of TNBC cells in vitro (A) Representative images of RAC-GTP levels (red) in MDA-MB-468 Luc cells in the absence (CTL) and presence of EHT1864, NSC23766, or A41 (1 h at 10 μM) (left). Luciferase (Luc, green) was used to detect the cells. RAC-GTP mean fluorescence intensity was quantified inside the cell area (right) (n = 31–37 cells from 3 independent experiments; ∗p < 0.05, ∗∗∗p < 0.001) (scale bars: 10 μm). […] (C) Quantification of colony number of indicated cancer cell lines in the presence of A41 (10 μM) expressed as the percentage of control in the absence of A41. Results shown are representative of N > 3 independent experiments. (D) Immunoblot analysis and corresponding quantification of AKT and P44/42 expression and phosphorylation (pAKT, p44/42) in MDA-MB-468 Luc cells in the absence (−) and presence of NSC23766 or A41 (1 h at 10^−5 M). […] (E) 3D invasion assay of MDA-MB-468 Luc and cancer-associated fibroblasts (CAFs) and corresponding quantification (scale bars: 200 μm). […]
(§2) After indicated treatments, MDA-MB-468Luc cells were incubated on ice with lysis buffer supplemented with proteases and phosphatases inhibitor cocktails (Sigma Aldrich, Saint Quentin Fallavier, France) and sodium orthovanadate. […] Protein band intensities were quantified using ImageJ Software (NIH software, Bethesda, Md).

[4] = system: AKT phosphorylation in MDA-MB-468 Luc cells; assay: Immunoblotting; assay type: cell-based; conditions: 10^-5 M, 1 h
Procedure: as §1, §2

Cannabinoid CB1 = Cannabinoid CB1 (Homo sapiens, UniProt P21554); assay: Safety screen; assay type: binding
Cannabinoid CB1, sequence (P21554 whole entry): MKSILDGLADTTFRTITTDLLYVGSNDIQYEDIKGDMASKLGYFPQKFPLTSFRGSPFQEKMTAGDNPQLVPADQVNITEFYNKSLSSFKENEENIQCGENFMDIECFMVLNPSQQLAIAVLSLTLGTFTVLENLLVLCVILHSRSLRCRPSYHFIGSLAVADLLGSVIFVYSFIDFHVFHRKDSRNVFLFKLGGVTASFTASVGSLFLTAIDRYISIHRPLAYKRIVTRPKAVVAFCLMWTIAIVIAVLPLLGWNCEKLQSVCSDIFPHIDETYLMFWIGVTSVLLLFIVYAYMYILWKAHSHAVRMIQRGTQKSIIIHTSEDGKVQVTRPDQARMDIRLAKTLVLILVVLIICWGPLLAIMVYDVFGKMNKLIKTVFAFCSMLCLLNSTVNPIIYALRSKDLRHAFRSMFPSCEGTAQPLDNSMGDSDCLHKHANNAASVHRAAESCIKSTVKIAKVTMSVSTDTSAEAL

MARK3(h) = MARK3(h) (Homo sapiens, UniProt P27448); assay: Kinase Profiler; assay type: biochemical
Procedure: as §4

TRB2(h) = TRB2(h) (Homo sapiens, UniProt Q92519); assay: Kinase Profiler; assay type: biochemical
TRB2(h), sequence (Q92519 whole entry): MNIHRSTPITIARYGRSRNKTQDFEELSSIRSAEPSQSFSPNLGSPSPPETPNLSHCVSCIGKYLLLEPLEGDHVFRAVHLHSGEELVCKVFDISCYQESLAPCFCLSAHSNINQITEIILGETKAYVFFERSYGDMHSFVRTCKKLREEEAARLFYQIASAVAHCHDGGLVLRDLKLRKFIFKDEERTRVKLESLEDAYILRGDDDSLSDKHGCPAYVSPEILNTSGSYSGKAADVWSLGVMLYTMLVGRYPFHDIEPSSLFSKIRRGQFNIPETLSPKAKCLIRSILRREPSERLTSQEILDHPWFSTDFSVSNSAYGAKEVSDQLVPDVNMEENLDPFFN
Procedure: as §4

Flt3(D835Y)(h) = Flt3(D835Y)(h) (Homo sapiens, UniProt P36888, D835Y); assay: Kinase Profiler; assay type: biochemical
Procedure: as §4

CDKL3(h) = CDKL3(h) (Homo sapiens, UniProt Q8IVW4); assay: Kinase Profiler; assay type: biochemical
Procedure: as §4

TGFBR1(h), sequence (P36897 34-503): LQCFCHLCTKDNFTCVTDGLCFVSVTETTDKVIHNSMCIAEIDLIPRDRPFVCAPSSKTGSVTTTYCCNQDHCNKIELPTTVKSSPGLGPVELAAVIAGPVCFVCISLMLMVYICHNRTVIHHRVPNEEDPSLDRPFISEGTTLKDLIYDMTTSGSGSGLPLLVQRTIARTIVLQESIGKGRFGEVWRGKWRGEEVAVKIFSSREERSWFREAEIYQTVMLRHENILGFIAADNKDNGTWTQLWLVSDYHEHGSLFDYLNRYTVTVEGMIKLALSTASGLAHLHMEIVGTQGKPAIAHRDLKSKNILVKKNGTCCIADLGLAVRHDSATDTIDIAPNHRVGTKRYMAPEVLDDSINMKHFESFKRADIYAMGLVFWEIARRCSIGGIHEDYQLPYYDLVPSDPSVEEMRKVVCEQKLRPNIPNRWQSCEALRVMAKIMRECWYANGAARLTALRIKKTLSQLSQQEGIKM
NUAK2(h), sequence (Q9H093 whole entry): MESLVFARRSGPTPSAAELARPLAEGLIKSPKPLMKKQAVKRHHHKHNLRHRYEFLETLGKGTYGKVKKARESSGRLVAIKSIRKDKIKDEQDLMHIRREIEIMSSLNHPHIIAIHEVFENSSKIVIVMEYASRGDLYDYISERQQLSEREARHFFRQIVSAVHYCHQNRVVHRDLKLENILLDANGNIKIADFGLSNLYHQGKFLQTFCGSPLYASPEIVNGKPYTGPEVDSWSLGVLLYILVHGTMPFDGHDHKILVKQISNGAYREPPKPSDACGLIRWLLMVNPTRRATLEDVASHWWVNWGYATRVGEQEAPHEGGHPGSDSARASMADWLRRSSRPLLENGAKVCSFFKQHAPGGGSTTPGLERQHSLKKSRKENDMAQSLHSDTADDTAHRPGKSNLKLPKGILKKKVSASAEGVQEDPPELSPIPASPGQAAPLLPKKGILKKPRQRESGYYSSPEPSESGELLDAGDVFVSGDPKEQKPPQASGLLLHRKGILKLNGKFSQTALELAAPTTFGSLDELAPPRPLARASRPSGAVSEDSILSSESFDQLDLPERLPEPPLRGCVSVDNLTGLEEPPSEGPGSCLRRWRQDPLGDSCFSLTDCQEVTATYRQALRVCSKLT

Structure (SMILES): COc1ccc(OC)c(NS(=O)(=O)c2ccc(NC(=O)CCSc3ccc(C)cc3)cc2)c1 [Compound A41]
- Activity(%) (TGFBR1(h)): 103%
- Activity(%) (NUAK2(h)): 110%
- Activity(%) (WNK1(h)): 96%
- %Effect, single replicates (1st, 2nd, 3rd) (TA1537; - S9, 1.0E-04 M): 222.5% and 214.4% and 229.2%
- Cytotoxicity (% of control), Mean %Effect (TA1537; - S9, 1.0E-04 M): 222.0%
- %Effect, single replicates (1st, 2nd, 3rd) (TA1537; - S9, 1.0E-05 M): 109.9% and 108.6% and 111.2%
- Cytotoxicity (% of control), Mean %Effect (TA1537; - S9, 1.0E-05 M): 109.9%
- %Effect, single replicates (1st, 2nd, 3rd) (TA1537; - S9, 1.2E-06 M): 109.9% and 108.6% and 101.9%
- Cytotoxicity (% of control), Mean %Effect (TA1537; - S9, 1.2E-06 M): 106.8%
- %Effect, single replicates (1st, 2nd, 3rd) (TA1537; - S9, 2.5E-05 M): 128.7% and 115.3% and 112.6%
- Cytotoxicity (% of control), Mean %Effect (TA1537; - S9, 2.5E-05 M): 118.8%
- %Effect, single replicates (1st, 2nd, 3rd) (TA1537; - S9, 2.5E-06 M): 111.2% and 104.5% and 99.2%
- Cytotoxicity (% of control), Mean %Effect (TA1537; - S9, 2.5E-06 M): 105.0%
- %Effect, single replicates (1st, 2nd, 3rd) (TA1537; - S9, 5.0E-05 M): 162.2% and 150.1% and 148.8%
- Cytotoxicity (% of control), Mean %Effect (TA1537; - S9, 5.0E-05 M): 153.7%
- %Effect, single replicates (1st, 2nd, 3rd) (TA1537; - S9, 5.0E-06 M): 116.6% and 111.2% and 100.5%
- Cytotoxicity (% of control), Mean %Effect (TA1537; - S9, 5.0E-06 M): 109.4%
- %Effect, single replicates (1st, 2nd, 3rd) (TA1537; - S9, 6.0E-07 M): 107.2% (2×) and 115.3%
- Cytotoxicity (% of control), Mean %Effect (TA1537; - S9, 6.0E-07 M): 109.9%
- Activity(%) (CK1α(h)): 102%
- Activity(%) (LIMK2(h)): 115%
- Activity(%) (PhKγ1(h)): 102%
- Activity(%) (VRK2(h)): 110%
- % inh. [1]: 46%
- Activity(%) (PKCη(h)): 118%
- Activity(%) (WNK3(h)): 101%
- Activity(%) (NEK9(h)): 107%
- animal survival (CT26 cells): improvement in animal survival
- development of pulmonary metastases (CT26 cells): significantly reduced the development of pulmonary metastases
- Activity(%) (CLK3(h)): 110%
- Activity(%) (LATS2(h)): 110%
- % inh. [2]: 78%
- p44/42 activation [3]: unchanged
- hyperactivation of AKT [4]: reduced
- % inh. (Cannabinoid CB1): 81%
- Activity(%) (MARK3(h)): 98%
- Activity(%) (TRB2(h)): 104%
- Activity(%) (Flt3(D835Y)(h)): 101%
- Activity(%) (CDKL3(h)): 103%

Source: publication PMC12281424, “A Rac-specific competitive inhibitor of guanine nucleotide binding reduces metastasis in triple-negative breast cancer” (Cell Reports Medicine, 2025)
